# Read-outs that look alike come from different tables or passages of the source. Starred links: 1 amine or outer side, 2 acyl side, 3 side chain; linkers in the order of their positions; H or OH if unused. Positions of bridges follow the written chain, without caps; N, C: chain ends. Non-standard residues stand in square brackets, D forms with d. Residues, ends and D or L forms follow the SMILES beside them. *: point of attachment. Leu(3R-O(AcLeu(3R-OH))) = CC(=O)N[C@H](C(=O)O[C@H](C(C)C)[C@H](N)C(=O)O)[C@H](O)C(C)C; Leu(3R-OH,Nα-propionyl) = CCC(=O)N[C@H](C(=O)*)[C@H](O)C(C)C; X1 = CC(C)[C@@H](O[*:3])[C@H](N[*:1])C(=O)[*:2]; NMeT = CN[C@H](C(=O)O)[C@@H](C)O; dPhLac = O=C(O)[C@H](O)Cc1ccccc1; NMeA = CN[C@@H](C)C(=O)O; dNMeA = CN[C@H](C)C(=O)O; NMeDha = C=C(NC)C(=O)O
# Legend:
# [1] = test system: 92.1 uveal melanoma cell line (heterozygous GNAQ Q209L); test: Cell proliferation assay (resazurin cell viability), 92.1 cell line; assay type: cell-based
# From the text: (§1) Cell Proliferation Assays with Chromodepsins (compounds (A1) and 2-15): Cell line descriptions: 92.1—uveal melanoma cell line, derived from primary tumor, harboring heterozygous GNAQ Q209L mutation. Purchased from Sigma Aldrich. MP41 (CRL-3297) -uveal melanoma cell line, derived from primary tumor, harboring heterozygous GNA11 Q209L mutation. Purchased from ATCC. A375—skin melanoma cell line, harboring homozygous BRAF V600E mutation. Origin: Cancer Cell Line Encyclopedia (CCLE). SK-MEL-30—skin melanoma cell line, harboring heterozygous NRAS Q61K mutation. Origin: CCLE.
# (§2) Cells were cultured in 96-well plates in a total volume of 100 μL at 37° C., 5% CO2 and 95% relative humidity. All cell lines were cultured in RPMI Medium (RPMI 1640 w/o L-glutamine, Bioconcept ref. 1-41F01-I) except A375, DMEM medium (DMEM high glucose (4.5 g/L), Bioconcept, ref. 1-26F01-I), and supplemented with 10% FCS (Bioconcept, ref. 2-01F30-I). Two to three thousand cells were seeded in 96-well plates per well the night before they were treated with compounds (concentration range: from 260 nM to 0.036 nM with ⅓ dilution steps; for 7 the concentration range was increased from 10000 nM to 1.52 nM with ⅓ dilution steps). Cell viability was measured by addition of 10 ul of resazurin per well after 96 hours of treatment. Results were analyzed and plotted using GraphPad Prism 9.0.1.
# [2] = test system: MP41 uveal melanoma cell line (heterozygous GNA11 Q209L); test: Cell proliferation assay (resazurin cell viability), MP41 cell line; assay type: cell-based
# From the text: as §1, §2
# [3] = test system: A375 skin melanoma cell line (homozygous BRAF V600E); test: Cell proliferation assay (resazurin cell viability), A375 cell line; assay type: cell-based
# From the text: as §1, §2
# [4] = test system: SK-MEL-30 skin melanoma cell line (heterozygous NRAS Q61K); test: Cell proliferation assay (resazurin cell viability), SK-MEL-30 cell line; assay type: cell-based
# From the text: as §1, §2
# [5] = test system: 92.1 and MP41 cell lines (GNAQ/GNA11 mutant uveal melanoma); test: Cell proliferation assays, potency ranking over both uveal melanoma lines; assay type: cell-based; details: 92.1 and MP41 cell lines
# From the text: The selective antiproliferative profile of the chromodepsins against GNAQ/GNA11 mutant cell lines is confirmed by the lack of activity against the A375 and SK MEL 30 cell lines that are independent from GNAQ/GNA11 signaling. The potency ranking using the 92.1 and MP41 cell lines is in good agreement with the previously SAR studies. […] These findings are in line with a recent report from Voss et al., highlighting the importance of the “lipophilic anchors” of compound (A1) at the residues varied in compounds 2 and 3, in context of binding kinetics and prolonged residence time on the target proteins. The retained potency of compound 4 indicates a promising exit vector for potential synthetic or biosynthetic modifications of the scaffold. […] The linearized depsipeptides compounds 5-7 lack any antiproliferative activity. In this experimental setup, the cellular permeability of the compounds was a crucial factor contributing to the observed antiproliferative potency. Therefore, all compounds were characterized in a low efflux MCDK assay and determined their exposed polar surface areas (EPSA) in order to assess their passive cellular permeabilities. All macrocyclic chromodepsins that feature the N acyl Hle side chain show similar results concerning their % fraction absorbed (% FA; average ˜60% FA+20%) and EPSA values.
# as §1, §2
# MDCK-LE monolayers = test: Cell-based transwell assay with MDCK-low efflux monolayers (passive permeability); assay type: in vitro ADME; details: MDCK-LE monolayers
# Protocol: Cell-based transwell assays with MDCK-low efflux monolayers: Compounds (A1) and 2-15 were tested in MDCK cell sub-clones with low effluxt ransporter activity (MDCK-LE) in order to determine their passive permeability. The incubations were performed at a contract research organization as described previously.
# [6] = EPSA determination by supercritical fluid chromatography; assay type: physicochemical; details: modified EPSA method, SFC
# Protocol: […] by supercritical fluid chromatography: Compounds (A1) and 2-15 were tested by supercritical fluid chromatography (SFC) to determine their ESAPSA values. Samples were analyzed using a Chirex 3014 column ([…], 3×100 mm column, 100 Å pore size; Phenomenex. The starting conditions were 5% methanol containing 20 mM ammonium formate and 95% scCO2. The gradient was increased linearly to 60% methanol containing 20 mM ammonium formate in 4.5 min.
# [7] = 92.1 (GNAQ Q209L), 96 hours of treatment, read-out: GI50 by cell line, 92.1
# [8] = 92.1 cell line, average of Rep. 1 and 2, read-out: GI50 92.1 Average
# [9] = 92.1 cell line, replicate 1, read-out: GI50 92.1 Rep. 1
# [10] = 92.1 cell line, replicate 2, read-out: GI50 92.1 Rep. 2
# [11] = MP41 (GNA11 Q209L), 96 hours of treatment, read-out: GI50 by cell line, MP41
# [12] = MP41 cell line, average of Rep. 1 and 2, read-out: GI50 MP41 Average
# [13] = MP41 cell line, replicate 1, read-out: GI50 MP41 Rep. 1
# [14] = MP41 cell line, replicate 2, read-out: GI50 MP41 Rep. 2
# [15] = A375 (GNAQ/11 wild type), 96 hours of treatment, read-out: GI50 by cell line, A375
# [16] = A375 cell line, average of Rep. 1 and 2, read-out: GI50 A375 Average
# [17] = A375 cell line, replicate 1, read-out: GI50 A375 Rep. 1
# [18] = A375 cell line, replicate 2, read-out: GI50 A375 Rep. 2
# [19] = SK-MEL-30 (GNAQ/11 wild type), 96 hours of treatment, read-out: GI50 by cell line, SK-MEL-30
# [20] = SK-MEL-30 cell line, average of Rep. 1 and 2, read-out: GI50 SK-MEL-30 Average
# [21] = SK-MEL-30 cell line, replicate 1, read-out: GI50 SK-MEL-30 Rep. 1
# [22] = SK-MEL-30 cell line, replicate 2, read-out: GI50 SK-MEL-30 Rep. 2
structure (smiles),measurement,setting,value
C=C1C(=O)N[C@@H](C)C(=O)N(C)[C@@H](C)C(=O)N[C@@H]([C@H](OC(=O)[C@@H](NC(C)=O)[C@H](O)C(C)C)C(C)C)C(=O)N(C)[C@@H]([C@@H](C)OC)C(=O)O[C@H](C(C)C)[C@H](NC(C)=O)C(=O)O[C@H](Cc2ccccc2)C(=O)N1C [Compound 8] (Ac-[X1][dPhLac][NMeDha]A[NMeA][Leu(3R-O(AcLeu(3R-OH)))][NMeT](Me); ester 1-C),GI50,[1]; [7],0.001 µM
same,GI50,[1]; [8],0.001 µM
same,GI50,[1]; [9],0.00082 µM
same,GI50,[1]; [10],0.00124 µM
same,GI50,[2]; [11],0.0004 µM
same,GI50,[2]; [12],0.0004 µM
same,GI50,[2]; [13],0.00033 µM
same,GI50,[2]; [14],0.00046 µM
same,GI50,[3]; [15],> 0.26 µM
same,GI50,[3]; [16],> 0.26 µM
same,GI50,[3]; [17],> 0.26 µM
same,GI50,[3]; [18],> 0.26 µM
same,GI50,[4]; [19],> 0.26 µM
same,GI50,[4]; [20],> 0.26 µM
same,GI50,[4]; [21],> 0.26 µM
same,GI50,[4]; [22],> 0.26 µM
same,loss of potency compared to compound (A1) (growth inhibition),[5],two to three
same,% Fraction absorbed,MDCK-LE monolayers,70.4%
same,% Recovery,MDCK-LE monolayers,78%
same,Papp A − B,MDCK-LE monolayers,5.84 ×10⁻⁶ cm/s
same,EPSA,[6],94 A^2
"CCC(=O)N[C@H](C(=O)O[C@H](C(C)C)[C@@H]1NC(=O)[C@H](C)N(C)C(=O)[C@H](C)NC(=O)[C@H](C)N(C)C(=O)[C@@H](Cc2ccccc2)OC(=O)[C@@H](NC(C)=O)[C@@H](C(C)C)OC(=O)[C@H]([C@@H](C)OC)N(C)C1=O)[C@H](O)C(C)C [Compound 10] (Ac-[X1][dPhLac][NMeA]A[NMeA][X1](Leu(3R-OH,Nα-propionyl))[NMeT](Me); ester 1-C)",GI50,[1]; [7],0.607 µM
same,GI50,[1]; [8],0.607 µM
same,GI50,[1]; [9],0.761 µM
same,GI50,[1]; [10],0.453 µM
same,GI50,[2]; [11],0.396 µM
same,GI50,[2]; [12],0.396 µM
same,GI50,[2]; [13],0.419 µM
same,GI50,[2]; [14],0.372 µM
same,GI50,[3]; [15],> 10 µM
same,GI50,[3]; [16],> 10 µM
same,GI50,[3]; [17],> 10 µM
same,GI50,[3]; [18],> 10 µM
same,GI50,[4]; [19],> 10 µM
same,GI50,[4]; [20],> 10 µM
same,GI50,[4]; [21],> 10 µM
same,GI50,[4]; [22],> 10 µM
same,loss of potency compared to compound (A1) (growth inhibition),[5],25-30 fold
same,% Fraction absorbed,MDCK-LE monolayers,37.6%
same,% Recovery,MDCK-LE monolayers,77%
same,Papp A − B,MDCK-LE monolayers,2.03 ×10⁻⁶ cm/s
"CCC(=O)N[C@H](C(=O)O[C@H](C(C)C)[C@@H]1NC(=O)[C@H](C)N(C)C(=O)[C@H](C)NC(=O)[C@@H](C)N(C)C(=O)[C@@H](Cc2ccccc2)OC(=O)[C@@H](NC(C)=O)[C@@H](C(C)C)OC(=O)[C@H]([C@@H](C)OC)N(C)C1=O)[C@H](O)C(C)C [Compound 11] (Ac-[X1][dPhLac][dNMeA]A[NMeA][X1](Leu(3R-OH,Nα-propionyl))[NMeT](Me); ester 1-C)",GI50,[1]; [7],0.0018 µM
same,GI50,[1]; [8],0.0018 µM
same,GI50,[1]; [9],0.0014 µM
same,GI50,[1]; [10],0.00224 µM
same,GI50,[2]; [11],0.0007 µM
same,GI50,[2]; [12],0.0007 µM
same,GI50,[2]; [13],0.00054 µM
same,GI50,[2]; [14],0.00078 µM
same,GI50,[3]; [15],> 0.26 µM
same,GI50,[3]; [16],> 0.26 µM
same,GI50,[3]; [17],> 0.26 µM
same,GI50,[3]; [18],> 0.26 µM
same,GI50,[4]; [19],> 0.26 µM
same,GI50,[4]; [20],> 0.26 µM
same,GI50,[4]; [21],> 0.26 µM
same,GI50,[4]; [22],> 0.26 µM
same,loss of potency compared to compound (A1) (growth inhibition),[5],two to three
same,% Fraction absorbed,MDCK-LE monolayers,79.5%
same,% Recovery,MDCK-LE monolayers,76%
same,Papp A − B,MDCK-LE monolayers,8.5 ×10⁻⁶ cm/s
same,EPSA,[6],95 A^2

# Reference: US20240252668A1, “ANTIBODY DRUG CONJUGATES AND METHODS FOR MAKING THEREOF” (Novartis AG, priority 2021, published 2024)
